In patent US20240173303A1, “1,2,5-Oxadiazoles As Inhibitors Of Indoleamine 2,3- Dioxygenase” (Incyte Corporation, priority 2008, published 2024):

Biological target: Human indoleamine 2,3-dioxygenase (IDO) (Homo sapiens (Human), UniProt P14902)
Test: Human Indoleamine 2,3-Dioxygenase (IDO) Enzyme Assay
Type: biochemical
Conditions: assay of Example A, 95 nM IDO, 2 mM D-Trp, pH 6.5, room temperature
Source text: Human indoleamine 2,3-dioxygenase (IDO) with an N-terminal His tag was expressed in E. coli and purified to homogeneity. IDO catalyzes the oxidative cleavage of the pyrrole ring of the indole nucleus of tryptophan to yield N′-formylkynurenine.

Chain of Human indoleamine 2,3-dioxygenase (IDO) (P14902 whole entry): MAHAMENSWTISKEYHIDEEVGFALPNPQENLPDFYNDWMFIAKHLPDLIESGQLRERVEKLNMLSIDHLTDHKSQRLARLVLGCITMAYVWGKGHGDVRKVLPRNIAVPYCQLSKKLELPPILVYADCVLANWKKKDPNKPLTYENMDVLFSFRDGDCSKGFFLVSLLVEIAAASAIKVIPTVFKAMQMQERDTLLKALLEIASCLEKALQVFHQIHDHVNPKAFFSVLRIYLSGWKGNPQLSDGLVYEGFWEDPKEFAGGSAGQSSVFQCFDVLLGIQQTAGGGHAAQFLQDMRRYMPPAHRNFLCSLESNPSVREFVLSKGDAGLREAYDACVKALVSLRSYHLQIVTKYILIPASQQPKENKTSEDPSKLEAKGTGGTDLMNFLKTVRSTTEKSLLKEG

Q: With `CS(=O)(=O)NCCNc1nonc1C(=NO)Nc1ccc(F)c(C#N)c1` [Example 19, N-(3-Cyano-4-fluorophenyl)-N′-hydroxy-4-({2-[(methylsulfonyl)amino]ethyl}amino)-1,2,5-oxadiazole-3-carboximidamide] as the compound, how does the IC50 (Table 2) read?
A: < 500 nM

Q: Which IC50 (Table 2) does the source give for `NS(=O)(=O)NCCNc1nonc1C(=NO)Nc1cccc(C(F)(F)F)c1` [Example 13, 4-({2-[(Aminosulfonyl)amino]ethyl}amino)-N′-hydroxy-N-[3-(trifluoromethyl)phenyl]-1,2,5-oxadiazole-3-carboximidamide] here?
A: < 500 nM

Q: `CS(=O)(=O)NCCCNc1nonc1C(=NO)Nc1ccc(F)c(Br)c1` [Example 4, N-(3-Bromo-4-fluorophenyl)-N′-hydroxy-4-({3-[(methylsulfonyl)amino]propyl}amino)-1,2,5-oxadiazole-3-carboximidamide] was tested. Which IC50 (Table 2) did it give?
A: < 100 nM

Q: Which IC50 (Table 2) does the source give for `CS(=O)(=O)NCCCNc1nonc1C(=NO)Nc1ccc(F)c(C(F)(F)F)c1` [Example 12, N-[4-Fluoro-3-(trifluoromethyl)phenyl]-N′-hydroxy-4-({3-[(methylsulfonyl)amino]propyl}amino)-1,2,5-oxadiazole-3-carboximidamide] here?
A: < 100 nM

Q: For `NS(=O)(=O)NCCCNc1nonc1C(=NO)Nc1ccc(F)c(Br)c1` [Example 3, 4-({3-[(Aminosulfonyl)amino]propyl}amino)-N-(3-bromo-4-fluorophenyl)-N′-hydroxy-1,2,5-oxadiazole-3-carboximidamide], which IC50 (Table 2) is on record?
A: < 100 nM

Q: With `NS(=O)(=O)NCCNc1nonc1C(=NO)NCc1cc(Br)co1` [Example 20, 4-({2-[(Aminosulfonyl)amino]ethyl}amino)-N-[(4-bromo-2-furyl)methyl]-N′-hydroxy-1,2,5-oxadiazole-3-carboximidamide] as the compound, how does the IC50 (Table 3) read?
A: < 500 nM

Q: How did the IC50 (Table 2) turn out when `CS(=O)(=O)NCCNc1nonc1C(=NO)Nc1ccc(F)c(Cl)c1` [Example 6, N-(3-Chloro-4-fluorophenyl)-N′-hydroxy-4-({2-[(methylsulfonyl)amino]ethyl}amino)-1,2,5-oxadiazole-3-carboximidamide] was run?
A: < 200 nM

Q: `NS(=O)(=O)NCCCNc1nonc1C(=NO)Nc1cccc(C(F)(F)F)c1` [Example 15, 4-({3-[(Aminosulfonyl)amino]propyl}amino)-N′-hydroxy-N-[3-(trifluoromethyl)phenyl]-1,2,5-oxadiazole-3-carboximidamide] was tested. Which IC50 (Table 2) did it give?
A: < 200 nM

Q: `NS(=O)(=O)NCCNc1nonc1C(=NO)Nc1ccc(F)c(Cl)c1` [Example 5, 4-({2-[(Aminosulfonyl)amino]ethyl}amino)-N-(3-chloro-4-fluorophenyl)-N′-hydroxy-1,2,5-oxadiazole-3-carboximidamide] was tested. Which IC50 (Table 2) did it give?
A: < 200 nM

Q: Which IC50 (Table 2) does the source give for `CS(=O)(=O)NCCNc1nonc1C(=NO)Nc1cccc(C(F)(F)F)c1` [Example 14, N′-Hydroxy-4-({2-[(methylsulfonyl)amino]ethyl}amino)-N-[3-(trifluoromethyl)phenyl]-1,2,5-oxadiazole-3-carboximidamide] here?
A: < 200 nM

Q: For `NS(=O)(=O)NCCCNc1nonc1C(=NO)Nc1ccc(F)c(Cl)c1` [Example 7, 4-({3-[(Aminosulfonyl)amino]propyl}amino)-N-(3-chloro-4-fluorophenyl)-N′-hydroxy-1,2,5-oxadiazole-3-carboximidamide], which IC50 (Table 2) is on record?
A: < 200 nM

Q: For `NS(=O)(=O)NCCNc1nonc1C(=NO)Nc1ccc(F)c(C(F)(F)F)c1` [Example 9, 4-({2-[(Aminosulfonyl)amino]ethyl}amino)-N-[4-fluoro-3-(trifluoromethyl)phenyl]-N′-hydroxy-1,2,5-oxadiazole-3-carboximidamide], which IC50 (Table 2) is on record?
A: < 100 nM

Q: `NS(=O)(=O)NCCCNc1nonc1C(=NO)Nc1ccc(F)c(C(F)(F)F)c1` [Example 11, 4-({3-[(Aminosulfonyl)amino]propyl}amino)-N-[4-fluoro-3-(trifluoromethyl)phenyl]-N′-hydroxy-1,2,5-oxadiazole-3-carboximidamide] was tested. Which IC50 (Table 2) did it give?
A: < 100 nM

Q: How did the IC50 (Table 3) turn out when `NS(=O)(=O)NCCNc1nonc1C(=NO)NCc1cc(Cl)co1` [Example 21, 4-({2-[(Aminosulfonyl)amino]ethyl}amino)-N-[(4-chloro-2-furyl)methyl]-N′-hydroxy-1,2,5-oxadiazole-3-carboximidamide] was run?
A: < 750 nM

Q: With `N#Cc1cc(NC(=NO)c2nonc2NCCNS(N)(=O)=O)ccc1F` [Example 18, 4-({2-[(Aminosulfonyl)amino]ethyl}amino)-N-(3-cyano-4-fluorophenyl)-N′-hydroxy-1,2,5-oxadiazole-3-carboximidamide] as the compound, how does the IC50 (Table 2) read?
A: < 750 nM

Q: For `Cc1cc(NC(=NO)c2nonc2NCCNS(C)(=O)=O)ccc1F` [Example 17, N-(4-Fluoro-3-methylphenyl)-N′-hydroxy-4-({2-[(methylsulfonyl)amino]ethyl}amino)-1,2,5-oxadiazole-3-carboximidamide], which IC50 (Table 2) is on record?
A: < 500 nM

Q: `CS(=O)(=O)NCCCNc1nonc1C(=NO)Nc1cccc(C(F)(F)F)c1` [Example 16, N′-Hydroxy-4-({3-[(methylsulfonyl)amino]propyl}amino)-N-[3-(trifluoromethyl)phenyl]-1,2,5-oxadiazole-3-carboximidamide] was tested. Which IC50 (Table 2) did it give?
A: < 200 nM

Q: Which IC50 (Table 2) does the source give for `CS(=O)(=O)NCCCNc1nonc1C(=NO)Nc1ccc(F)c(Cl)c1` [Example 8, N-(3-Chloro-4-fluorophenyl)-N′-hydroxy-4-({3-[(methylsulfonyl)amino]propyl}amino)-1,2,5-oxadiazole-3-carboximidamide] here?
A: < 200 nM

Q: With `CS(=O)(=O)NCCNc1nonc1C(=NO)Nc1ccc(F)c(C(F)(F)F)c1` [Example 10, N-[4-Fluoro-3-(trifluoromethyl)phenyl]-N′-hydroxy-4-({2-[(methylsulfonyl)amino]ethyl}amino)-1,2,5-oxadiazole-3-carboximidamide] as the compound, how does the IC50 (Table 2) read?
A: < 100 nM
